Reference: patent US20250154212A1, “METHOD OF DISRUPTING MEMORY AND LIPOPEPTIDE FOR USE IN SUCH METHOD” (The Research Foundation for The State University of New York, priority 2023, published 2025)
Entries after “also recorded” stand apart in the source; their conditions may differ. Where no end group is shown, it is not given here. The star is where a group is joined. Myristoyl = CCCCCCCCCCCCCC(=O)*

Legend:
[1] = test system: late-LTP in CA1 st. radiatum of hippocampal slices; test: Late-LTP recording (fEPSP) in hippocampal slices of wild-type mice; format: cell-based, mouse; details: for effect on established late-LTP (fEPSP slope), tetanized pathway / effect on baseline synaptic transmission, untetanized pathway: wild-type mice; for effect on established late-LTP (fEPSP slope), tetanized pathway: 10 μM applied to the bath 3 h post-tetanization; for effect on baseline synaptic transmission, untetanized pathway: 10 μM in bath; for potentiation after drug washout: drug applied 3 h starting 3 h post-tetanization, then 4-h washout
Description: (§1) Acute mouse hippocampal slices (450 μm) were prepared as previously described (17, 73). Hippocampi from 2-6-month-old male C57/B6 or PKM ζ-null mice as previously described (17) were dissected, bathed in ice-cold dissection buffer, and sliced with a McIlwain tissue slicer in a cold room (4° C.). The dissection buffer contained (in mM): 125 NaCl, 2.5 KCl, 1.25 NaH2PO4, 26 NaHCO3, 11 glucose, 10 MgCl2, and 0.5 CaCl2), and was bubbled with 95% O2/5% CO2 to maintain pH at 7.4. After dissection the slices were immediately transferred into an Oslo-type interface recording chamber (31.5±1° C.) (73). The recording superfusate consisted of (in mM): 118 NaCl, 3.5 KCl, 2.5 CaCl2), 1.3 MgSO4, 1.25 NaH2PO4, 24 NaHCO3, and 15 glucose, bubbled with 95% O2/5% CO2, with a flow rate of 0.5 ml/min. In a subset of experiments a custom-made recirculation system employing piezoelectric pumps was used for recycling the superfusate (Bartels Mikrotechnik GmbH, Dortmund, Germany) (73).
(§2) Field EPSPs were recorded with a glass extracellular recording electrode (2-5 M (2) placed in the CA1 st. radiatum, and concentric bipolar stimulating electrodes (CBBRE75 and 30200; FHC, Bowdoin, ME) were placed on either side within CA3 or CA1. Test stimulation rate was once every 30 sec, alternating every 15 sec between stimulating electrodes. Based upon a pre-established exclusion criterion, a slice was not used if fEPSP spike threshold was <2 mV on initial input-output analysis. Pathway independence was confirmed by the absence of paired-pulse facilitation between the two pathways. A single stimulating electrode was used for PLA/immunocytochemistry with a test stimulation rate of once every 30 sec. The high-frequency stimulation, optimized to produce a relatively rapid onset of protein synthesis-dependent late-LTP (74), consisted of two 100 Hz-1 s tetanic trains, at 25% of spike threshold, spaced 20 sec apart. The maximum slope of the rise of the fEPSP was analyzed on a PC using the WinLTP data acquisition program (75).
(§3) Replicates are biological because there is only one measurement for each sample. Drug/vehicle comparisons were performed blindly. Sample sizes vary for the different experimental approaches (biochemistry, slice physiology, and behavior) and were established by power analyses based on effect size estimates from published work or preliminary experiments. The observed effect sizes for binary comparisons are reported as Cohen's d and as η^2p for ANOVA effects. Multi-factor comparisons were performed using ANOVA with repeated measures, as appropriate. Two-population Student's/tests were performed to compare protein immunofluorescence intensity between control and potentiated hippocampal slices. For LTP experiments, the responses were first normalized to the mean of the 30 min period prior to tetanization (or equivalent in control pathways), and then the means over 5 min periods were used for statistical comparisons (e.g., pre-tetanization, beginning and end of drug application). Paired Student's t tests were used to compare the change in the potentiated response at time points at the beginning and end of drug application. The degrees of freedom for the critical t values of the/tests and the F values of the ANOVAs are reported as subscripts. Post-hoc multiple comparisons were performed by Newman-Keuls tests as appropriate. Statistical significance was accepted at P<0.05 or appropriate Bonferroni correction for multiple comparisons.
Now we can test the central prediction of the KIBRA-PKMζ maintenance hypothesis that decoupling PKMζ from KIBRA reverses potentiation of activated synapses. We simultaneously recorded two independent synaptic pathways in st. radiatum within a hippocampal slice. We stimulated one pathway by high-frequency tetanization to induce late-LTP, and in the second pathway we recorded low-frequency test fEPSP responses for the equivalent time. […]

[2] = test system: late-LTP in hippocampal slices of PKMζ-null mice; test: Late-LTP recording (fEPSP) in hippocampal slices of PKMζ-null mice; format: cell-based, mouse; details: for effect on late-LTP, tetanized pathway: 10 μM applied 3 h post-tetanization; for effect on baseline synaptic transmission, untetanized pathway: 10 μM in bath
Description: as §1, §2
as §3, with “comparisons. […]” for “comparisons.”

How did the “effect on established late-LTP (fEPSP slope), tetanized pathway” value (shortened to “effect … (fEPSP slope), tetanized pathway”) [1] turn out when `O=S(=O)(O)c1cc(O)c2c(S(=O)(=O)O)cc(S(=O)(=O)O)cc2c1` [ζ-stat, 1-naphthol-3,6,8-trisulphonic acid] was run?
Its value is “reverses late-LTP maintenance”.

What about the “effect … (fEPSP slope), tetanized pathway” value ([1]; listed as z-stat) of the same compound?
Its value is “reverses late-LTP”.

What about the “effect on baseline synaptic transmission, untetanized pathway” value (shortened to “effect on baseline synaptic transmission”) [1] of the same compound?
The value was “without measurably affecting synaptic transmission”.

What about the “effect on baseline synaptic transmission” value ([1]; listed as z-stat) of the same compound?
Its value is “no effect on baseline synaptic transmission”.

And the “potentiation after drug washout” value ([1]; wild-type)?
The value was “reversal of potentiation persisted”.

And the “potentiation after drug washout” value ([1]; wild-type, listed as z-stat)?
Its value is “potentiation does not return”.

What about the “effect on late-LTP when drug is present at tetanization” value ([1]; wild-type, first pathway, 150 min post-tetanization with drug) of the same compound?
The value was “suppresses late-LTP”.

What about the “late-LTP in second pathway after washout” value ([1]; wild-type, tetanized after 1-h washout) of the same compound?
Its value is “late-LTP is induced and maintained in second pathway”.

And the “effect on late-LTP, tetanized pathway” value [2]?
The value was “has no effect on late-LTP maintenance”.

And the “effect on late-LTP, tetanized pathway” value ([2]; listed as z-stat)?
Its value is “has no effect on late-LTP”.

And the “effect on baseline synaptic transmission” value [2]?
The value was “has no effect on late-LTP or baseline synaptic transmission”.

For “myr-N-FVRNSLERRSVRMKRPS-C (Myristoyl-FVRNSLERRSVRMKRPS) [K-ZAP]”, which “effect … (fEPSP slope), tetanized pathway” value [1] is on record?
The value was “reverses late-LTP maintenance”.

What about the “effect on baseline synaptic transmission” value [1] of the same compound?
The value was “no measurable effect on baseline synaptic transmission; also recorded: no effect on untetanized pathway”.

And the “effect on late-LTP, tetanized pathway” value [2]?
The value was “has no effect on late-LTP maintenance; also recorded: has no effect on PKMz-null-LTP”.

And the “effect on baseline synaptic transmission” value [2]?
Its value is “no effect”.
